In this assay the test system is Crl:CD (SD) Br (VAFplus) female rats with spontaneous renal pathology, including mineralization. To be noted: 104 weeks; for rats with evidence of pelvic/papillary mineralization / rats with evidence of transitional cell hyperplasia in kidneys: n=60; for rats with evidence of pelvic/papillary mineralization: undosed rats approx. 50% (n=120); for rats with evidence of transitional cell hyperplasia in kidneys: undosed rats approx. 63% (n=120). The method, then: Crl:CD (SD) Br (VAFplus) female rats (available from Charles River Laboratories in Wilmington, Mass.) were orally dosed once daily with 0, 100, 500, or 1500 mg (salt)/kg of lanthanum carbonate for 104 weeks. Crl:CD (SD) Br (VAFplus) female rats develop spontaneous renal pathology, including mineralization, as they age. At week 105, the pathological examination of the kidneys of these rats was performed.
Transitional cell hyperplasia is a response to trauma caused by the unnatural presence of mineral in the tissue, thus mineralization and hyperplasia are closely linked.

Read-outs that look alike come from different tables or passages of the source.

Turning to `O=C([O-])[O-].O=C([O-])[O-].O=C([O-])[O-].[La+3].[La+3]` [lanthanum carbonate], the “rats with evidence of pelvic/papillary mineralization” value was around 35% (100 mg (salt)/kg/day oral), around 5% (500 mg (salt)/kg/day oral) and around 1.7% (1500 mg (salt)/kg/day oral). Also, the “rats with evidence of transitional cell hyperplasia in kidneys” value (“rats with evidence … in kidneys” for short) (100 mg (salt)/kg/day oral) is around 48%, the “rats with evidence … in kidneys” value (500 mg (salt)/kg/day oral) was around 23% and the “rats with evidence … in kidneys” value (1500 mg (salt)/kg/day oral) is reported as around 7%. Also, the “effect on renal calcification (study conclusion)” value (oral administration, 100-1500 mg (salt)/kg/day) was “reduces renal calcification”.
